Earlier results in patent publication US9364565B2, “Medical device with coating for capturing genetically-altered cells and methods of using same” (OrbusNeich Medical, Inc., priority 2000, dated 2016).

Legend:
VEGFR-2 = VEGFR-2 (Homo sapiens, UniProt P35968)
endothelial cells = conditions: 100 μg

Sequence of VEGFR-2 (P35968 20-1356): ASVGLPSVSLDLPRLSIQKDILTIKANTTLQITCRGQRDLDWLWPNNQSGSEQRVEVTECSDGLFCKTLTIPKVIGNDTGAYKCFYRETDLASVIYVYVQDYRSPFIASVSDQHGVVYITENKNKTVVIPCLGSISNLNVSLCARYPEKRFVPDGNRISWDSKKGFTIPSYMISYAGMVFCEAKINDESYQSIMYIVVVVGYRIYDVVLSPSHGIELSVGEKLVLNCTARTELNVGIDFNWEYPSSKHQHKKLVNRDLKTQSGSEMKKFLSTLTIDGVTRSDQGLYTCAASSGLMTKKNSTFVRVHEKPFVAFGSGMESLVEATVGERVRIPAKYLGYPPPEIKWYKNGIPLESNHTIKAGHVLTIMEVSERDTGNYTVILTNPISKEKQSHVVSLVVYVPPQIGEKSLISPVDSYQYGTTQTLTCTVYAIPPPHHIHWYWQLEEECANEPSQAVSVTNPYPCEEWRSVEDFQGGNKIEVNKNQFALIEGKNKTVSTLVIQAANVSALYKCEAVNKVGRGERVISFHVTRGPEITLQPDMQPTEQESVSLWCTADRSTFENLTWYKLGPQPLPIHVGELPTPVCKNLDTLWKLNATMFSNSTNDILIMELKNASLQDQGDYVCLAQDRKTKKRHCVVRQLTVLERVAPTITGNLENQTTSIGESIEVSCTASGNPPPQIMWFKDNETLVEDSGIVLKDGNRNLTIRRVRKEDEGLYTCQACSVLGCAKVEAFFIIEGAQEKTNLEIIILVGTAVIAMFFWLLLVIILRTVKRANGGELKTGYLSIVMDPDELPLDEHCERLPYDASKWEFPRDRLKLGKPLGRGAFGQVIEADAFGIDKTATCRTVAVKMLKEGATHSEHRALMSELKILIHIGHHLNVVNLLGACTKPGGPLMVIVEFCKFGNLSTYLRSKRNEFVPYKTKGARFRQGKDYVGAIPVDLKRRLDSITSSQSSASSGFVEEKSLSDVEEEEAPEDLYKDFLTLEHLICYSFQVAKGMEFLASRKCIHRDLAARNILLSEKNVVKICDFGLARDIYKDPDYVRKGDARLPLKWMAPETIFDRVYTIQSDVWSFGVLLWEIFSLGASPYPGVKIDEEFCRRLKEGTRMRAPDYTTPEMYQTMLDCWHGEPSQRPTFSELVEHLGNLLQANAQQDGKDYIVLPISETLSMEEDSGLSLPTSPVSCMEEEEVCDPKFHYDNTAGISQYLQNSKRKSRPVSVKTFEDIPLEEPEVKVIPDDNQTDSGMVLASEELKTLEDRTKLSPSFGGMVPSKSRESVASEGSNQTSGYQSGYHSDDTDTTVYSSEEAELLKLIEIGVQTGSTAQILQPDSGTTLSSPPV

| Compound | binding to VEGFR-2 (VEGFR-2) | adherence of endothelial cells on a medical device (endothelial cells) |
| --- | --- | --- |
| Cc1[nH]c(/C=C2\C(=O)Nc3ccccc32)c(C)c1CCC(=O)O [SU6668] | bind to VEGFR-2 | – |
| VEGF | – | stimulate the adherence of endothelial cells on a medical device |
